Our source for the IC50 values is ChEMBL document CHEMBL5728514, “[1,2,4]Triazolo[4,3-a]quinoxaline derivative, method for preparing same, and pharmaceutical composition for preventing or treating BET protein-related diseases, containing same as active ingredient” (2021).

The experiment concerns the target Bromodomain-containing protein 4 (Homo sapiens, UniProt O60885). The experiment is described as follows: A mixture comprising 100 nM GST-BRD4 (BD1+BD2) and 100 nM biotinylated acetyl-histone H4 (Lys5,8,12,16) peptide was prepared in assay buffer (50 mM HEPES pH 7.4; 25 mM NaCl; 0.05% Tween 20; 0.1% bovine serum albumin (BSA); 10 mM dithiothreitol (DTT)). After adding 6 μl of the mixture to the diluent, 6 μl of the pre-mixed AlphaLISA Glutathione Acceptor Beads and AlphaScreen Streptavidin Donor Beads (PerkinElmer, 10 μg/ml in assay buffer, respectively) was added thereto. The samples were incubated in the dark at room temperature for 30 minutes (shaking at 300 rpm). Then, the signals were measured with PerkinElmer Envision HTS Multilabel Reader using an alpha screen protocol of PerkinElmer. Each plate contained the negative control in which biotinylated acetyl-histone H4 peptide and GST-BRD4 (BD1+BD2) were replaced by assay buffer. In the case of using the software GraphPad Prism for calculation, the negative control point was input as a low standard value. The positive control (probe molecule l-BET762 containing protein/peptide mixture) proceeded to pipetting.
What is called IC50 is the concentration at which inhibition is half-maximal. `Cc1ccc2nc(NCCCCNC(=O)C(C)(C)C)c3nnc(C)n3c2c1`: the IC50 is 56 nM.

On to `Cc1nnc2c(NCCCCNC(=O)OC(C)C)nc3c(C(F)(F)F)cc(F)cc3n12`, for which the IC50 is 91 nM.

Consider `Cc1nnc2c(NCCCCNC(=O)C(C)C)nc3ccc(F)cc3n12`, for which the IC50 is 77 nM.

With `Cc1nnc2c(NCCCCNC(=O)c3ccccc3)nc3ccccc3n12`, the IC50 is 58 nM.

Consider `Cc1nnc2c(NCCCCNC(=O)C(C)(C)C)nc3ccc(F)cc3n12`, for which the IC50 is 61 nM.

As to `Cc1nnc2c(NCCCCNC(=O)c3ccccc3)nc3ccc(NC(=O)C(C)C)cc3n12`, the IC50 was 56 nM.

As for `COCCOc1ccc2c(c1)nc(NCCCCNC(C)=O)c1nnc(C)n12`, the IC50 is 91 nM.
